Holding throughout (assay type): cell-based, human
The test system of one assay is 786-O. The assay can be described thus: XTT cell viability assay, 786-O RCC cells. The conditions noted are these: Homo sapiens, 786-0; XTT assay, 48 h; SD 10%; mean of three experiments; read-out: IC50 786 (Kidney RCC). The method, then:
(§1) Fifty microliters of sodium 3′-[1-phenylaminocarbonyl)-3,4-tetrazolium]-bis(4-methoxy-6-nitro) benzene sulfonic acid hydrate (XTT) reagent was added to each well. The assay is based on the cleavage of the yellow tetrazolium salt XTT to form an orange formazan dye by metabolically active cells. This bio-reduction occurs in viable cells only and is related to NAD(P)H production through glycolysis. Therefore, the amount of formazan dye measured at 490 nm directly correlated with the number of metabolically active cells reflecting cell proliferation and viability. Each assay was performed in quadruplicate.
For orientation: Tetrazolium assays rely on reduction of a dye to a coloured formazan, in cell work by metabolically active cells.

The subject of a further assay is Molm14. The assay can be described thus: XTT cell viability assay, Molm14 AML cells. The conditions noted are these: Homo sapiens, MOLM-14, 48 h, SD 10%, mean of three experiments. The method, then: as §1
The next assay concerns Molm13. The assay can be described thus: XTT cell viability assay, Molm13 AML cells. The conditions noted are these: Homo sapiens, MOLM-13, 48 h, SD 10%, mean of three experiments. The method, then: as §1
The next assay deals with CAL27. The assay is described as follows: XTT cell viability assay, CAL27 HNSCC cells. Conditions: Homo sapiens, CAL-27; XTT assay, 48 h; SD 10%; mean of three experiments; read-out: IC50 27 (HNSCC). How it is done:
as §1

The next assay relates to RCC4. The assay can be described thus: XTT cell viability assay, RCC4 RCC cells. Conditions: Homo sapiens, RCC4, 48 h, SD 10%, mean of three experiments, read-out: IC50 R4 (Kidney RCC). The method, then: as §1
In a further assay the test system is SKM1. The assay can be described thus: XTT cell viability assay, SKM1 MDS cells. Conditions: Homo sapiens, SKM-1, 48 h, SD 10%, mean of three experiments, read-out: IC50 SK (MDS). How it is done:
as §1

For the next assay, the system named is OCI-AML2. The assay can be described thus: XTT cell viability assay, OCI-AML2 AML cells. Conditions: Homo sapiens, OCI-AML2, 48 h, SD 10%, mean of three experiments, read-out: IC50 L2 (AML). The method, then:
as §1

A further assay relates to A498. The assay is described as follows: XTT cell viability assay, A498 RCC cells. Conditions: Homo sapiens, A498; XTT assay, 48 h; SD 10%; mean of three experiments; read-out: IC50 498 (Kidney RCC). The method, then:
as §1

A further assay concerns OCI-AML3. The assay can be described thus: XTT cell viability assay, OCI-AML3 AML cells. Conditions: Homo sapiens, OCI-AML-3, 48 h, SD 10%, mean of three experiments, read-out: IC50 L3 (AML). The method, then:
as §1

In another assay the test system is K562. The assay can be described thus: XTT cell viability assay, K562 CML cells. Conditions: Homo sapiens, K562, 48 h, SD 10%, mean of three experiments. The method, then: as §1
In a further assay the test system is MDA-MD-231. The assay can be described thus: XTT cell viability assay, breast cancer cells. Conditions: Homo sapiens, 48 h, SD 10%, mean of three experiments. The method, then:
as §1

The subject of the next assay is CAL33. The assay is described as follows: XTT cell viability assay, CAL33 HNSCC cells. Conditions: Homo sapiens, CAL-33; XTT assay, 48 h; SD 10%; mean of three experiments; read-out: IC50 33 (HNSCC). How it is done:
as §1

From publication PMC6691587, “New CXCR1/CXCR2 inhibitors represent an effective treatment for kidney or head and neck cancers sensitive or refractory to reference treatments” (Theranostics, 2019) come the findings set out here.

As usually defined, the IC50 is the midpoint of a concentration-inhibition curve.

As for `O=C(Nc1cccc(Cl)c1)Nc1ccccc1O` [C11], the IC50 in the assay with 786-O, in the assay with Molm14, in the assay on Molm13, with CAL27, in the assay on RCC4 and in the assay with SKM1 was over 25 µM in each case. Further, the half-inhibitory concentration (IC50) in the assay with OCI-AML2, in the assay with A498, in the assay on OCI-AML3, in the assay on K562, in the assay on MDA-MD-231 and in the assay with CAL33 was over 25 µM throughout.

For the molecule `O=C(Nc1nc2ccccc2s1)Nc1ccccc1Cl` [C21], the IC50 with 786-O is over 25 µM; with Molm14, over 25 µM; in the assay with Molm13, over 25 µM; in the assay on CAL27, over 25 µM; with RCC4, 25 µM; in the assay with SKM1 it was over 25 µM. The IC50 with OCI-AML2 is 10 µM; with A498 it was over 25 µM; with OCI-AML3, over 25 µM; with K562, over 25 µM; in the assay on MDA-MD-231, over 25 µM; in the assay with CAL33, over 25 µM.

Regarding `O=C(Nc1ccccc1)Nc1nc2ccccc2[nH]1` [C13], the IC50 is 20 µM in the assay on 786-O; 20 µM in the assay on Molm14; 25 µM with Molm13; 10 µM with CAL27; 25 µM in the assay on RCC4; 25 µM in the assay with SKM1. The IC50 in the assay with OCI-AML2 was 18 µM; in the assay on A498, 10 µM; in the assay with OCI-AML3 it was 25 µM; in the assay with K562, 10 µM; in the assay on MDA-MD-231 it was 12 µM; in the assay on CAL33 it was 10 µM.

Regarding `O=C(Nc1cccc(Cl)c1)Nc1nc2ccccc2s1` [C22], the concentration for half-maximal inhibition (IC50) in the assay on 786-O was over 25 µM; in the assay on Molm14, over 25 µM; in the assay on Molm13, over 25 µM; with CAL27 it was over 25 µM; in the assay on RCC4, 20 µM; in the assay with SKM1, over 25 µM. The IC50 was over 25 µM in the assay with OCI-AML2; over 25 µM with A498; over 25 µM with OCI-AML3; 25 µM in the assay on K562; over 25 µM in the assay on MDA-MD-231; over 25 µM in the assay with CAL33.

In the case of `COc1ccc(NC(=O)Nc2nc3ccccc3s2)cc1` [C24], the IC50 in the assay with 786-O was over 25 µM; with Molm14, over 25 µM; in the assay with Molm13, over 25 µM; in the assay on CAL27, over 25 µM; in the assay with RCC4 it was 15 µM; with SKM1, over 25 µM. In addition, the half-inhibitory concentration (IC50) in the assay with OCI-AML2 is over 25 µM; in the assay with A498, over 25 µM; in the assay on OCI-AML3 it was over 25 µM; in the assay on K562 it was 25 µM; with MDA-MD-231, over 25 µM; with CAL33 it was over 25 µM.

As to `Cc1ccc(NC(=O)Nc2ccccc2Cl)cc1` [C1], the IC50 with 786-O, in the assay with Molm14, in the assay on Molm13, with CAL27, in the assay on RCC4 and in the assay on SKM1 was over 25 µM each time. For the same molecule, the IC50 in the assay on OCI-AML2, with A498, in the assay with OCI-AML3, in the assay with K562, in the assay with MDA-MD-231 and in the assay with CAL33 was over 25 µM in each case.

Consider `COc1ccc(NC(=O)Nc2nc3ccccc3[nH]2)cc1` [C17], for which the concentration for half-maximal inhibition (IC50) in the assay with 786-O, in the assay with Molm14, in the assay on Molm13, in the assay on CAL27, in the assay on RCC4 and with SKM1 was over 25 µM each time. The IC50 in the assay with OCI-AML2, in the assay with A498, with OCI-AML3, in the assay on K562, in the assay on MDA-MD-231 and in the assay with CAL33 was over 25 µM in each case.

As for `S=C(Nc1ccccc1)Nc1ccc(Cl)cc1Cl` [C8], the half-inhibitory concentration (IC50) in the assay on 786-O, in the assay on Molm14, in the assay on Molm13, in the assay on CAL27, with RCC4 and in the assay on SKM1 was over 25 µM throughout. Further, the half-inhibitory concentration (IC50) in the assay with OCI-AML2, with A498, in the assay on OCI-AML3, in the assay on K562, with MDA-MD-231 and in the assay with CAL33 was over 25 µM throughout.

Consider `O=C(Nc1cccc(Cl)c1)Nc1nc2ccccc2[nH]1` [C15], for which the IC50 with 786-O, in the assay on Molm14, with Molm13, with CAL27, in the assay with RCC4 and with SKM1 was over 25 µM each time. Also, the IC50 in the assay with OCI-AML2, in the assay with A498, in the assay with OCI-AML3, with K562, in the assay with MDA-MD-231 and in the assay on CAL33 was over 25 µM each time.

Regarding `O=C(Nc1ccc(Cl)cc1)Nc1ccc(Cl)cc1Cl` [C6], the IC50 in the assay with 786-O is over 25 µM; in the assay with Molm14, over 25 µM; in the assay with Molm13, 22 µM; with CAL27, 25 µM; with RCC4 it was over 25 µM; with SKM1, over 25 µM. Further, the half-inhibitory concentration (IC50) was 25 µM in the assay with OCI-AML2; 22 µM in the assay on A498; 22 µM with OCI-AML3; 15 µM with K562; over 25 µM in the assay on MDA-MD-231; over 25 µM in the assay with CAL33.

Regarding `Cc1ccc(NC(=O)Nc2cccc(Cl)c2)cc1` [C2], the IC50 in the assay with 786-O, with Molm14, in the assay on Molm13, in the assay with CAL27, with RCC4 and with SKM1 was over 25 µM in each case. Besides, the IC50 in the assay with OCI-AML2, in the assay on A498, with OCI-AML3, in the assay on K562, in the assay on MDA-MD-231 and in the assay on CAL33 was over 25 µM in each case.

As to `O=C(Nc1ccccc1)Nc1nc2ccccc2s1` [C20], the IC50 in the assay on 786-O, in the assay with Molm14, in the assay on Molm13, in the assay on CAL27, in the assay with RCC4 and in the assay with SKM1 was over 25 µM each time. The IC50 with OCI-AML2, in the assay with A498, in the assay with OCI-AML3, with K562, in the assay with MDA-MD-231 and in the assay on CAL33 was over 25 µM in each case.

Consider `Cc1ccc(NC(=S)Nc2ccccc2)cc1` [C7], for which the IC50 with 786-O, with Molm14, in the assay on Molm13, in the assay with CAL27, in the assay on RCC4 and with SKM1 was over 25 µM each time. Moreover, the 50% inhibitory concentration (IC50) in the assay with OCI-AML2, in the assay on A498, with OCI-AML3, with K562, in the assay on MDA-MD-231 and in the assay on CAL33 was over 25 µM in each case.

Consider `CCOc1ccc2nc(NC(=O)Nc3cccc(C)c3)sc2c1` [C31], for which the concentration for half-maximal inhibition (IC50) was over 25 µM with 786-O; 25 µM with Molm14; over 25 µM with Molm13; over 25 µM in the assay on CAL27; over 25 µM in the assay on RCC4; over 25 µM with SKM1. Moreover, the concentration for half-maximal inhibition (IC50) with OCI-AML2 was 25 µM; in the assay on A498, over 25 µM; with OCI-AML3, over 25 µM; with K562, 25 µM; in the assay with MDA-MD-231 it was over 25 µM; with CAL33 it was over 25 µM.
